From patent US20240318141A1, “MATURATION AGENT” (Orizuru Therapeutics, Inc., priority 2021, published 2024)
Several values for one entry are separate records, joined by “and”; a condition that tells them apart may be missing. Identical values can stand only once.

How the values were obtained:
[1] = test system: immunodeficient NOD/SCID mouse with streptozotocin-induced insulin-deficient diabetes mellitus; experiment: In vivo transplantation of insulin-producing cell population prepared by addition of docetaxel: plasma human C-peptide and graft weight (Example 5)
Experimental: An immunodeficient NOD/SCID mouse was prepared by inducing insulin-deficient diabetes mellitus with streptozotocin. […] After transplantation, a human C-peptide concentration in plasma was measured over time. The graft was excised 6 months after transplantation, and its weight was measured.

[2] = test system: non-endocrine cells in insulin-producing cell population (QHJI-114s04 iPS cell line); experiment: Docetaxel treatment of cell population comprising insulin-producing cells, then extended culture in basal medium containing EGF (Example 4); assay type: cell-based, human; details: for proportions of PDX1+/CHGA− and PDX1−/CHGA− cells after extended culture involving EGF: with respect to control cell population
Description: The differentiation of a QHJI-114s04 iPS cell line into an insulin-producing cell population was induced by the three-dimensional culture method using a bioreactor according to steps 1) to 6) described above and the previous report (Nature Biotechnology 2014; 32: 1121-1133). Specifically, the iPS cells were subjected to the first culture in a medium (DMEM/1% B-27 (INS+)/Penicillin Streptomycin/dimethyl sulfoxide) containing differentiation-inducing factors (GSK3β inhibitor, ROCK inhibitor and low dose of activin A) under conditions causing action of insulin, and subsequently subjected to the second culture in a medium (DMEM/1% B-27 (INS−)/Penicillin Streptomycin/dimethyl sulfoxide) containing a differentiation-inducing factor (low dose of activin A) under conditions causing no action of insulin to obtain a definitive endoderm cell population. […] The exchange from the bioreactor to the multiwell plate was carried out in step 6).
Marker protein expression (PDX1 and CHGA) in each cell population before the start of and after the completion of extended culture was measured by flow cytometry. Marker protein expression (NKX6.1, C-peptide (insulin), PDX1, and CHGA) in the cell population obtained 7 days after the start of step 6) was also measured by flow cytometry. Respective samples were collected by sampling from separate culture containers. The number of cells was measured in an automatic cell counter at the time of sample preparation for flow cytometry, and the total number of cells per well of the multiwell plate was calculated.

[3] = +Docetaxel 4 days from day 7 (1 μM), s6d11
[4] = +Docetaxel 4 days from day 7, after extended culture, EGF absent
[5] = +Docetaxel 4 days from day 7, after extended culture, EGF present
[6] = +Docetaxel 7 days from day 4 (1 μM), s6d11
[7] = +Docetaxel 7 days from day 4, after extended culture, EGF absent
[8] = +Docetaxel 7 days from day 4, after extended culture, EGF present

## CC(=O)O[C@@]12CO[C@@H]1C[C@H](O)[C@@]1(C)C(=O)[C@H](O)C3=C(C)[C@@H](OC(=O)[C@H](O)[C@@H](NC(=O)OC(C)(C)C)c4ccccc4)C[C@@](O)([C@@H](OC(=O)c4ccccc4)[C@H]21)C3(C)C [Docetaxel, (−)-(1S,2S,3R,4S,5R,7S,8S,10R,13S)-4-Acetoxy-2-benzoyloxy-5,20-epoxy-1,7,10-trihydroxy-9-oxotax-11-en-13-yl (2R,3S)-3-tert-butoxycarbonylamido-2-hydroxy-3-phenylpropionate]
[1]; graft excised at 6 months after transplantation
  graft weight: low tendency
[1]; subcutaneous transplantation, follow-up
  persistence of human C-peptide secretion after transplantation: continuously confirmed up to 6 months after transplantation
[1]; subcutaneously transplanted cell population prepared by addition of docetaxel vs prepared without docetaxel
  human C-peptide secretion in plasma: at the same level
[2]; +Docetaxel 4 days from day 7
  population exhibiting marked increase by extended culture involving EGF (table footnote): No population exhibited marked increase by extended culture involving EGF
  proportions of PDX1+/CHGA− and PDX1−/CHGA− cells after extended culture involving EGF: drastically decreased
[2]; [3]
  The number of cells CHGA+: 177 ×10^4 cells/well
  The number of cells PDX+/CHGA−: 0.7 ×10^4 cells/well
  The number of cells PDX−/CHGA−: 0.9 ×10^4 cells/well
  Total number of cells: 178 ×10^4 cells/well
[2]; [4]
  The number of cells CHGA+: 132 ×10^4 cells/well
  The number of cells PDX+/CHGA−: 1.5 ×10^4 cells/well
  The number of cells PDX−/CHGA−: 6.3 ×10^4 cells/well
  Total number of cells: 140 ×10^4 cells/well
[2]; [5]
  The number of cells CHGA+: 144 ×10^4 cells/well and 133 ×10^4 cells/well and 147 ×10^4 cells/well
  The number of cells PDX+/CHGA−: 1.1 ×10^4 cells/well and 1.3 ×10^4 cells/well and 1.2 ×10^4 cells/well
  The number of cells PDX−/CHGA−: 5.6 ×10^4 cells/well and 6.6 ×10^4 cells/well and 5.9 ×10^4 cells/well
  Total number of cells: 151 ×10^4 cells/well and 141 ×10^4 cells/well and 154 ×10^4 cells/well
[2]; +Docetaxel 7 days from day 4
  population exhibiting marked increase by extended culture involving EGF (table footnote): No population exhibited marked increase by extended culture involving EGF
  proportions of PDX1+/CHGA− and PDX1−/CHGA− cells after extended culture involving EGF: drastically decreased
[2]; [6]
  The number of cells CHGA+: 209 ×10^4 cells/well
  The number of cells PDX+/CHGA−: 0.4 ×10^4 cells/well
  The number of cells PDX−/CHGA−: 0.8 ×10^4 cells/well
  Total number of cells: 210 ×10^4 cells/well
[2]; [7]
  The number of cells CHGA+: 126 ×10^4 cells/well
  The number of cells PDX+/CHGA−: 1.5 ×10^4 cells/well
  The number of cells PDX−/CHGA−: 5.0 ×10^4 cells/well
  Total number of cells: 132 ×10^4 cells/well
[2]; [8]
  The number of cells CHGA+: 132 ×10^4 cells/well and 127 ×10^4 cells/well and 159 ×10^4 cells/well
  The number of cells PDX+/CHGA−: 0.8 ×10^4 cells/well and 1.5 ×10^4 cells/well
  The number of cells PDX−/CHGA−: 4.7 ×10^4 cells/well and 2.9 ×10^4 cells/well and 4.8 ×10^4 cells/well
  Total number of cells: 138 ×10^4 cells/well and 165 ×10^4 cells/well
